Test results from patent US20230295152A1 (SENDA BIOSCIENCES, INC., priority 2019, published 2023).
Read-outs that look alike come from different tables or passages of the source.

Experiments:
[1] = Caco-2 Permeability Assay; format: in vitro ADME; settings: human
Description: Preparation of Caco-2 Cells: 50 μL and 25 mL of cell culture medium were added to each well of the Transwell insert and reservoir, respectively. The HTS transwell plates were incubated at 37° C., 5% CO2 for 1 hour before cell seeding. Caco-2 cells were diluted to 6.86×10^5 cells/mL with culture medium and 50 μL of cell suspension were dispensed into the filter well of the 96-well HTS Transwell plate. Cells were cultivated for 14-18 days in a cell culture incubator at 37° C., 5% CO2, 95% relative humidity. Cell culture medium was replaced every other day, beginning no later than 24 hours after initial plating.
Assessment of Cell Monolayer Integrity: Medium was removed from the reservoir and each Transwell insert and replaced with prewarmed fresh culture medium. Transepithelial electrical resistance (TEER) across the monolayer was measured using Millicell Epithelial Volt-Ohm measuring system (Millipore, USA). The Plate was returned to the incubator once the measurement was done. The TEER value was calculated according to the following equation:
TEER measurement(ohms)×Area of membrane(cm^2)=TEER value(ohm·cm^2)
TEER value should be greater than 230 ohm·cm^2, which indicates the well-qualified Caco-2 monolayer.
Preparation of Solutions: 2 mM stock solutions in DMSO of control compounds were prepared and diluted with HBSS (10 mM HEPES, pH 7.4) to get 10 μM working solution. 0.2 mM stock solutions of test compounds in DMSO were prepared and diluted with HBSS (10 mM HEPES, pH 7.4 with 0.5% BSA) to get 1 μM working solution. Metoprolol, erythromycin and cimetidine were used as control compounds.
Performing the Drug Transport Assay: The Caco-2 plate was removed from the incubator. The monolayer was washed twice with pre-warmed HBSS (10 mM HEPES, pH 7.4). The plate was incubated at 37° C. for 30 minutes. To determine the rate of drug transport in the apical to basolateral direction, 125 μL of the working solution was added to the Transwell insert (apical compartment). A 50 μL sample was transferred immediately from the apical compartment to 200 μL of acetonitrile containing IS (100 nM alprazolam, 200 nM Caffeine and 100 nM tolbutamide) in a new 96-well plate as the initial donor sample (A-B) and it was vortexed at 1000 rpm for 10 minutes. The wells in the receiver plate (basolateral compartment) were filled with 235 μL of transport buffer. To determine the rate of drug transport in the basolateral to apical direction, 285 μL of the working solution were added to the receiver plate wells (basolateral compartment). A 50 μL sample was transferred immediately from the basolateral compartment to 200 μL of acetonitrile containing IS (100 nM alprazolam, 200 nM Caffeine and 100 nM tolbutamide) in a new 96-well plate as the initial donor sample (B-A) and it was vortexed at 1000 rpm for 10 minutes. The Transwell insert (apical compartment) was filled with 75 μL of transport buffer. The apical to basolateral direction and the basolateral to apical direction need to be done at the same time. The plates were incubated at 37° C. for 2 hours. At the end of the incubation, 50 μL samples from donor sides (apical compartment for Ap→B1 flux, and basolateral compartment for B1→Ap) and receiver sides (basolateral compartment for Ap→B1 flux, and apical compartment for B1→Ap) were transferred to wells of a new 96-well plate, followed by the addition of 4 volume of acetonitrile containing IS (100 nM alprazolam, 200 nM Caffeine and 100 nM tolbutamide). Samples were vortexed for 10 minutes, 50 μL samples were transferred to wells of a new 96-well plate, followed by the addition of 50 μL Hepes and 200 μL IS. A11 samples were vortexed for 10 minutes, and then centrifuged at 3,220 g for 40 minutes. An aliquot of 150 μL of the supernatant was mixed with an appropriate volume of ultra-pure water before LC-MS/MS analysis.
Data analysis: All calculations were carried out using Microsoft Excel. Peak areas were determined from extracted ion chromatograms. […]

[2] = Liver Microsome Stability Assay, human; format: in vitro ADME; settings: human liver microsomes
Description: Two separate experiments were performed as follows.
With Cofactors (NADPH): 25 μL of 10 mM NADPH was added to the incubations. The final concentrations of microsomes and NADPH were 0.5 mg/mL and 1 mM, respectively. The final concentration of microsomes was 0.5 mg/mL. The mixture was pre-warmed at 37° C. for 10 minutes. The reaction was started with the addition of 2.5 μL of 100 μM control compound or test compound solutions. Verapamil was used as positive control in this study. The final concentration of test compound or control compound was 1 μM. The incubation solution was incubated in water batch at 37° C. Aliquots of 25 μL were taken from the reaction solution at 0.5, 5, 15, 30 and 60 minutes. The reaction was stopped by the addition of 5 volumes of cold acetonitrile with IS (200 nM caffeine and 100 nM tolbutamide). Samples were centrifuged at 3, 220 g for 40 minutes. Aliquot of 100 μL of the supernatant was mixed with 100 μL of ultra-pure H2O and then used for LC-MS/MS analysis.
Data Analysis: All calculations were carried out using Microsoft Excel. Peak areas were determined from extracted ion chromatograms. The slope value, k, was determined by linear regression of the natural logarithm of the remaining percentage of the parent drug vs. incubation time curve.
The in vitro half-life (in vitro t1/2) was determined from the slope value:
Conversion of the in vitro t1/2 (min) into the in vitro intrinsic clearance (in vitro CLint, in μL/min/mg protein) was done using the following equation (mean of duplicate determinations): […]
The calculations of Scaled-up CLint(mL/min/kg), Predicted CLH (mL/min/kg) and EH were done using the following equation:
Scaled-up CLint=(0.693/t1/2)×(1/(microsomal protein concentration(0.5 mg/mL)))×Scaling Factors;Predicted CLH=(QH×Scaled-up CLint×fub)/(QH+Scaled-up CLint×fub);EH=Predicted CLH/QH
where QH is the hepatic blood flow (mL/min/kg) (Table 32), • fub is the fraction of unbound drug in plasma which is assumed to be 1.
“+++” indicates a Clint value less than 10 mL/min/Kg, […] indicates a Clint between 10 and 20 mL/min/Kg, and “+” indicates a Clint above 20 mL/min/Kg.

[3] = Caco-2, pH 7.4, apical to basolateral, read-out: Caco2 Papp (AB)
[4] = Caco-2, pH 7.4, basolateral to apical, read-out: Caco2 Papp (BA)
[5] = Caco-2, pH 7.4, +0.5% BSA, read-out: Caco 2 apparent permeability Papp (A−B)
[6] = Caco-2, pH 7.4, +0.5% BSA, read-out: Caco 2 apparent permeability Papp (B−A)

Papp A→B at 2 h, 1 μM [1, 3]	Papp B→A at 2 h, 1 μM [1, 4]	SMILES	Human liver microsome clearance [2]	Papp A→B at 2 h, 1 μM [1, 5]	Papp B→A at 2 h, 1 μM [1, 6]
2 to 10 ×10⁻⁶ cm/s	< 2 ×10⁻⁶ cm/s	C[C@@H](CO)n1cnc2c(-c3cncc(F)c3)nc(-c3ccc(OC(F)(F)F)cc3)cc2c1=O [Compound 1, (S)-8-(5-fluoropyridin-3-yl)-3-(1-hydroxypropan-2-yl)-6-(4-(trifluoromethoxy)phenyl)pyrido[3,4-d]pyrimidin-4(3H)-one]			
2 to 10 ×10⁻⁶ cm/s	2 to 10 ×10⁻⁶ cm/s	C[C@@H](CO)n1cnc2c(-c3cccc(F)c3)nc(-c3ccc(C(F)(F)F)nc3)cc2c1=O [Compound 8]			
2 to 10 ×10⁻⁶ cm/s	> 10 ×10⁻⁶ cm/s	C[C@@H](CO)n1cnc2c(-c3cccnc3)nc(-c3ccc(C(F)(F)F)nc3)cc2c1=O [Compound 12]	+++ (“+++” indicates a Clint value less than 10 mL/min/Kg)		
2 to 10 ×10⁻⁶ cm/s	2 to 10 ×10⁻⁶ cm/s	CC(C)(O)Cn1cnc2c(-c3cccnc3)nc(-c3ccc(C(F)(F)F)cc3)cc2c1=O [Compound 16]	+++ (“+++” indicates a Clint value less than 10 mL/min/Kg)		
> 10 ×10⁻⁶ cm/s	2 to 10 ×10⁻⁶ cm/s	Cc1ccc(-c2cc3c(=O)n([C@@H](C)CO)cnc3c(-c3cccnc3)n2)cc1 [Compound 17, (S)-3-(1-hydroxypropan-2-yl)-8-(pyridin-3-yl)-6-(p-tolyl)pyrido[3,4-d]pyrimidin-4(3H)-one]	+ (“+” indicates a Clint above 20 mL/min/Kg)		
2 to 10 ×10⁻⁶ cm/s	2 to 10 ×10⁻⁶ cm/s	CC(C)(O)Cn1cnc2c(-c3cccnc3)nc(-c3ccc(Cl)cc3)cc2c1=O [Compound 18]	+++ (“+++” indicates a Clint value less than 10 mL/min/Kg)		
2 to 10 ×10⁻⁶ cm/s	< 2 ×10⁻⁶ cm/s	Cn1cc(-c2nc(-c3ccc(Cl)cc3)cc3c(=O)n(CC(C)(C)O)cnc23)cn1 [Compound 21]	+++ (“+++” indicates a Clint value less than 10 mL/min/Kg)		
2 to 10 ×10⁻⁶ cm/s	2 to 10 ×10⁻⁶ cm/s	C[C@@H](CO)n1cnc2c(-c3cccnc3)nc(-c3ccc(OC(F)(F)F)cc3)cc2c1=O [Compound 22]	+++ (“+++” indicates a Clint value less than 10 mL/min/Kg)		
		C[C@@H](CO)n1cnc2c(-c3cccnc3)nc(-c3ccc(C(F)(F)F)cc3)cc2c1=O [Compound 23]	+++ (“+++” indicates a Clint value less than 10 mL/min/Kg)		
		C[C@@H](CO)n1cnc2c(-c3cnn(C)c3)nc(-c3ccc(OC(F)(F)F)cc3)cc2c1=O [Compound 25]	+++ (“+++” indicates a Clint value less than 10 mL/min/Kg)		
2 to 10 ×10⁻⁶ cm/s	< 2 ×10⁻⁶ cm/s	C[C@@H](CO)n1cnc2c(-c3cnn(C)c3)nc(-c3ccc(Cl)cc3)cc2c1=O [Compound 27]	+++ (“+++” indicates a Clint value less than 10 mL/min/Kg)		
2 to 10 ×10⁻⁶ cm/s	< 2 ×10⁻⁶ cm/s	C[C@@H](n1cnc2c(-c3cnn(C)c3)nc(-c3ccc(Cl)cc3)cc2c1=O)C(C)(C)O [Compound 31]			
2 to 10 ×10⁻⁶ cm/s	2 to 10 ×10⁻⁶ cm/s	C[C@@H](n1cnc2c(-c3cccnc3)nc(-c3ccc(Cl)cc3)cc2c1=O)C(C)(C)O [Compound 33]			
2 to 10 ×10⁻⁶ cm/s	2 to 10 ×10⁻⁶ cm/s	C[C@@H](CO)n1cnc2c(-n3ccnc3)nc(-c3ccc(OC(F)(F)F)cc3)cc2c1=O [Compound 44, (S)-3-(1-hydroxypropan-2-yl)-8-(1H-imidazol-1-yl)-6-(4-(trifluoromethoxy)-phenyl)pyrido[3,4-d]pyrimidin-4(3H)-one]			
< 2 ×10⁻⁶ cm/s	< 2 ×10⁻⁶ cm/s	C[C@@H](CO)n1cnc2c(-c3cccc(F)c3)nc(-c3ccc(C(F)(F)F)cn3)cc2c1=O [Compound 47, (S)-8-(3-fluorophenyl)-3-(1-hydroxypropan-2-yl)-6-(5-(trifluoromethyl)pyridin-2-yl)pyrido[3,4-d]pyrimidin-4(3H)-one]			
> 10 ×10⁻⁶ cm/s	2 to 10 ×10⁻⁶ cm/s	Cn1cc(-c2nc(-c3ccc(C(F)(F)F)nc3)cc3c(=O)n(CC(C)(C)O)cnc23)cn1 [Compound 60]			
2 to 10 ×10⁻⁶ cm/s	> 10 ×10⁻⁶ cm/s	C[C@@H](CO)n1cnc2c(-c3cccnc3)nc(-c3ccc(C4CC4)nc3)cc2c1=O [Compound 74]			
2 to 10 ×10⁻⁶ cm/s	< 2 ×10⁻⁶ cm/s	Cn1cc(-c2nc(-c3ccc(C(F)(F)F)cn3)cc3c(=O)n(CC(C)(C)O)cnc23)cn1 [Compound 103, 3-(2-hydroxy-2-methylpropyl)-8-(1-methyl-1H-pyrazol-4-yl)-6-(5-(trifluoromethyl)pyridin-2-yl)pyrido[3,4-d]pyrimidin-4(3H)-one]			
> 10 ×10⁻⁶ cm/s	2 to 10 ×10⁻⁶ cm/s	CC(C)(O)Cn1cnc2c(-c3cccnc3)nc(-c3ccc(C(F)(F)F)cn3)cc2c1=O [Compound 105]			

SMILES	Papp A→B at 2 h, 1 μM [1, 3]	Papp B→A at 2 h, 1 μM [1, 4]	Human liver microsome clearance [2]	Papp A→B at 2 h, 1 μM [1, 5]	Papp B→A at 2 h, 1 μM [1, 6]
C[C@@H](CO)n1cnc2c(-c3cccc(F)c3)nc(-c3ccc(Cl)cc3)cc2c1=O [Compound 7]	< 2 ×10⁻⁶ cm/s	< 2 ×10⁻⁶ cm/s	+++ (“+++” indicates a Clint value less than 10 mL/min/Kg)		
CC(C)(O)Cn1cnc2c(-c3cccnc3)nc(-c3ccc(C(F)(F)F)nc3)cc2c1=O [Compound 9]	2 to 10 ×10⁻⁶ cm/s	> 10 ×10⁻⁶ cm/s		9.6 ×10⁻⁶ cm/s	25 ×10⁻⁶ cm/s
C[C@H](n1cnc2c(-c3cnn(C)c3)nc(-c3ccc(Cl)cc3)cc2c1=O)C(C)(C)O [Compound 30]	2 to 10 ×10⁻⁶ cm/s	< 2 ×10⁻⁶ cm/s			
C[C@@H](CO)n1cnc2c(-c3cccnc3)nc(-c3ccc(C(F)(F)F)cn3)cc2c1=O [Compound 46, (S)-3-(1-hydroxypropan-2-yl)-8-(pyridin-3-yl)-6-(5-(trifluoromethyl)pyridin-2-yl)pyrido[3,4-d]pyrimidin-4(3H)-one]	> 10 ×10⁻⁶ cm/s	> 10 ×10⁻⁶ cm/s		12.6 ×10⁻⁶ cm/s	16.4 ×10⁻⁶ cm/s
